Experiments:
[1] = Cell viability assay for MRC-5 cell line; details: human
Method: Cell Viability Assay for MRC-5 Cell Line
(1) Culture of MRC-5 Cell Line
The MRC-5 cell line was purchased from Korea Cell Line Bank (KCLB), Seoul, Korea. Passage of cultured cells was maintained within P15.
6×10^3 cells were seeded for each well of a 96-well plate (SPL), and the cells were cultured in total volume of 150 μL.
Each well was mixed with a medium and treated, and the volume was set to 50 μL, so that the total volume of each well was 200 μL. Then, it was cultured in 37° C.
The following compounds were used as comparative examples, and the cell viability assay was performed in the same manner as in the compounds of Examples.
(3) Cytotoxicity Experiment
After treating EZ-Cytox (DOGEN, Cat. NO. EZ-3000, Lot. No. DLS2112) 20 μL in each well of completely cultured plate, it was cultured in 37° C. CO2 incubator for 4 hours. […] The data were converted into graphs using the Prism (ver. 9) program.

PLK1 = molecular target: T1, PLK1 (Homo sapiens, UniProt P53350); assay: Luciferase assay for PLK1 in HeLa LgBit (Plk1-HiBit KI) cell line; format: cell-based; details: 300 nM compound, luminescence after 9 hours
T1 construct: endogenous in cells; host or cells: HeLa cells stably expressing LgBit, with CRISPR/Cas9 knock-in of HiBit at the endogenous PLK1 locus
Method: 2. Luciferase Assay for PLK1
(1) Preparation and Culture of HeLa LgBit (Plk1-HiBit KI) Cell Line
A HeLa cell line in which the LgBit vector was transfected and expressed stably was prepared. Then, after constructing gRNA and donor to express the HiBit amino acid sequence behind the C-terminal of the Plk1 gene, which was inherent in the cell, it was inserted into the cell together with a vector capable of expressing CRISPR/Cas9. Only the cells in which the insertion was completed and knock-in had progressed were selected, sub-cultured and used.
(2) Treatment of Compounds of the Present Invention and Method of Luciferase Assay
In the case of HeLa LgBit (Plk1-HiBit KI), the compounds were treated after being released after thymidine block, and the process was as follows. Thymidine (Sigma-Aldrich Cat. No. T9250-5G) was completely dissolved in DW and used in the experiment. For thymidine block, the products were treated with 2 mM of thymidine and then incubated for 24 hours. For release and chemical treatment, the medium was suctioned and washed with 1×PBS. TrypLE™ was added and incubated in 37° C. CO2 incubator for 5 min. Cells neutralized by adding complete media were counted through a counter. For each well of a 96-well culture plate (SPL), 3.3×10^4 cells and a total medium volume of 150 μL were seeded and incubated in a CO2 incubator.
Each cell line was incubated in a CO2 incubator for 18 hours, and Endurazine was added to each well to make up 4% of the total volume. After adding the compound of the present invention in a 96-well white plate (SPL) to a concentration of 300 nM, the wavelength of the plate reader (BMG Labtech, CLARIOstar Plus) was set to […], and then the luminescence was tracked in real time.
The results are shown in Table 2 below and FIGS. 1 and 2.
In Table 2, Activity represents the ratio of the luminescence value of each Exemplary Compound treatment group to DMSO treatment group (+++: <0.3, ++ <0.6, + <0.7).

H526 cell line = assay: Cell viability assay for H526 cell line; format: cell-based; details: Homo sapiens, NCI-H526, 120 h; H526 cells, 5 days, EZ-Cytox, 0.46-3000 nM
Method: 3. Cell Viability Assay for H526 Cell Line
(1) Culture of NCI-H526 Cell Line
(2) Treatment of Compounds of the Present Invention and Method of Cell Viability Assay
After treating the compound to each well to make the total volume of 200 μL, it was cultured in a CO2 incubator (Thermo Fisher Science, Cat. No. 4111) for 5 days.
The absorbance of the completely cultured sample was measured by setting the wavelength of a plate reader (BMG Labtech, CLARIOstar Plus) to […], and was measured after shaking for 3 minutes in a plate reader before measurement.
In Table 3, Activity represents IC50 value of each Exemplary Compound treatment group to H526 cell line (A: <30 nM, B: <50 nM, C: <100 nM, D: <200 nM, E: <400 nM).

T1 sequence (P53350 whole entry): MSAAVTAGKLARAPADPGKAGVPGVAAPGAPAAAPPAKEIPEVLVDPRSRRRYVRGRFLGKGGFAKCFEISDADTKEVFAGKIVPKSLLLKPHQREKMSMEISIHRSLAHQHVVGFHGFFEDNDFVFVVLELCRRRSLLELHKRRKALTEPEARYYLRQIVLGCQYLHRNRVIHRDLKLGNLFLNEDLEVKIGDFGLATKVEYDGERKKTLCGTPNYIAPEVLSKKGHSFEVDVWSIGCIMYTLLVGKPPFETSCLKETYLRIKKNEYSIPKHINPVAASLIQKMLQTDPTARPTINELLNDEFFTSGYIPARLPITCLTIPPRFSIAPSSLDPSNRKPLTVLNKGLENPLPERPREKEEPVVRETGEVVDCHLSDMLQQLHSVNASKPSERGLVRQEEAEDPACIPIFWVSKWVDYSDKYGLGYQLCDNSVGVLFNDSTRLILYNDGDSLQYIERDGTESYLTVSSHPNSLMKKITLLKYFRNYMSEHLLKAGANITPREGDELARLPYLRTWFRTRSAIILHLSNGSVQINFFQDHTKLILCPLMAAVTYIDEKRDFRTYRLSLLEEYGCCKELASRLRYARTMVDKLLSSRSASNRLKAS

SMILES	IC50 at 5 days ([1]; MRC-5 cells (normal cell line)) [µM]	Activity: ratio of the luminescence value of each Exemplary Compound treatment group to DMSO treatment group (PLK1)	IC50 (H526 cell line) [µM]	IC50 at 5 days [1] [µM]
COc1cc(C(=O)NN2CCN(C(=O)CCC3CCN(c4ccc(C5CCC(=O)NC5=O)cc4F)CC3)CC2)ccc1Nc1ncc2c(n1)N(C(C)C)CC(F)(F)C(=O)N2C (stereo not drawn) [Compound 11, 4-((7,7-difluoro-9-isopropyl-5-methyl-6-oxo-6,7,8,9-tetrahydro-5H-pyrimido[4,5-b][1,4]diazepin-2-yl)amino)-N-(1-(3-(1-(4-(2,6-dioxopiperidin-3-yl)-2-fluorophenyl)piperidin-4-yl)propanoyl)piperazin-1-yl)-3-methoxybenzamide]	> 10	++ (++ <0.6)	< 0.05	
COc1cc(C(=O)NC2CC3(CCN(CC4CCN(c5ccc(C6CCC(=O)NC6=O)cc5F)CC4)CC3)C2)ccc1Nc1ncc2c(n1)N(C(C)C)CC(F)(F)C(=O)N2C (stereo not drawn) [Compound 13, 4-((7,7-difluoro-9-isopropyl-5-methyl-6-oxo-6,7,8,9-tetrahydro-5H-pyrimido[4,5-b][1,4]diazepin-2-yl)amino)-N-(7-((1-(4-(2,6-dioxopiperidin-3-yl)-2-fluorophenyl)piperidin-4-yl)methyl)-7-azaspiro[3.5]nonan-2-yl)-3-methoxybenzamide]		++ (++ <0.6)	< 0.03	> 10
COc1cc(C(=O)NN2CCC(CN3CCN(c4ccc(C5CCC(=O)NC5=O)cc4F)CC3)C(F)(F)C2)ccc1Nc1ncc2c(n1)N(C(C)C)CC(F)(F)C(=O)N2C (stereo not drawn) [Compound 16, 4-((7,7-difluoro-9-isopropyl-5-methyl-6-oxo-6,7,8,9-tetrahydro-5H-pyrimido[4,5-b][1,4]diazepin-2-yl)amino)-N-(4-((4-(4-(2,6-dioxopiperidin-3-yl)-2-fluorophenyl)piperazin-1-yl)methyl)-3,3-difluoropiperidin-1-yl)-3-methoxybenzamide]	> 10	++ (++ <0.6)	< 0.1	
COc1cc(C(=O)NN2CC(F)(F)CC2CCN2CCN(c3ccc(C4CCC(=O)NC4=O)cc3F)CC2)ccc1Nc1ncc2c(n1)N(C(C)C)CC(F)(F)C(=O)N2C (stereo not drawn) [Compound 17, 4-((7,7-difluoro-9-isopropyl-5-methyl-6-oxo-6,7,8,9-tetrahydro-5H-pyrimido[4,5-b][1,4]diazepin-2-yl)amino)-N-(2-(2-(4-(4-(2,6-dioxopiperidin-3-yl)-2-fluorophenyl)piperazin-1-yl)ethyl)-4,4-difluoropyrrolidin-1-yl)-3-methoxybenzamide]	> 10	++ (++ <0.6)	< 0.05	
COc1cc(C(=O)NN2CCC(F)(CN3CCN(c4ccc(C5CCC(=O)NC5=O)cc4F)CC3)CC2)ccc1Nc1ncc2c(n1)N(C(C)C)CC(F)(F)C(=O)N2C (stereo not drawn) [Compound 18, 4-((7,7-difluoro-9-isopropyl-5-methyl-6-oxo-6,7,8,9-tetrahydro-5H-pyrimido[4,5-b][1,4]diazepin-2-yl)amino)-N-(4-((4-(4-(2,6-dioxopiperidin-3-yl)-2-fluorophenyl)piperazin-1-yl)methyl)-4-fluoropiperidin-1-yl)-3-methoxybenzamide]	> 10	++ (++ <0.6)	< 0.1	
COc1cc(C(=O)NC2CC3(CCN(CC4CCN(c5ccc(C6CCC(=O)NC6=O)cc5F)CC4)CC3)C2)ncc1Nc1ncc2c(n1)N(C(C)C)CC(F)(F)C(=O)N2C (stereo not drawn) [Compound 22, 5-((7,7-difluoro-9-isopropyl-5-methyl-6-oxo-6,7,8,9-tetrahydro-5H-pyrimido[4,5-b][1,4]diazepin-2-yl)amino)-N-(7-((1-(4-(2,6-dioxopiperidin-3-yl)-2-fluorophenyl)piperidin-4-yl)methyl)-7-azaspiro[3.5]nonan-2-yl)-4-methoxypicolinamide]		++ (++ <0.6)	< 0.05	> 10
COc1cc(C(=O)NN2CC3(CCN(CC4CCN(c5ccc(C6CCC(=O)NC6=O)cc5F)CC4)CC3)C2)ccc1Nc1ncc2c(n1)N(C(C)C)CC(F)(F)C(=O)N2C (stereo not drawn) [Compound 23, 4-((7,7-difluoro-9-isopropyl-5-methyl-6-oxo-6,7,8,9-tetrahydro-5H-pyrimido[4,5-b][1,4]diazepin-2-yl)amino)-N-(7-((1-(4-(2,6-dioxopiperidin-3-yl)-2-fluorophenyl)piperidin-4-yl)methyl)-2,7-diazaspiro[3.5]nonan-2-yl)-3-methoxybenzamide]	> 10	+++ (+++: <0.3)	< 0.03	
COc1cc(C(=O)OC2CC3(CCN(CC4CCN(c5ccc(C6CCC(=O)NC6=O)cc5F)CC4)CC3)C2)ccc1Nc1ncc2c(n1)N(C(C)C)CC(F)(F)C(=O)N2C (stereo not drawn) [Compound 25, 7-((1-(4-(2,6-dioxopiperidin-3-yl)-2-fluorophenyl)piperidin-4-yl)methyl)-7-azaspiro[3.5]nonan-2-yl 4-((7,7-difluoro-9-isopropyl-5-methyl-6-oxo-6,7,8,9-tetrahydro-5H-pyrimido[4,5-b][1,4]diazepin-2-yl)amino)-3-methoxybenzoate]		++ (++ <0.6)	< 0.2	> 10
COc1cc(C(=O)NN2CC3(CCC(CN4CCN(c5ccc(C6CCC(=O)NC6=O)cc5F)CC4)CC3)C2)ccc1Nc1ncc2c(n1)N(C(C)C)CC(F)(F)C(=O)N2C (stereo not drawn) [Compound 31, 4-((7,7-difluoro-9-isopropyl-5-methyl-6-oxo-6,7,8,9-tetrahydro-5H-pyrimido[4,5-b][1,4]diazepin-2-yl)amino)-N-(7-((4-(4-(2,6-dioxopiperidin-3-yl)-2-fluorophenyl)piperazin-1-yl)methyl)-2-azaspiro[3.5]nonan-2-yl)-3-methoxybenzamide]		+++ (+++: <0.3)	< 0.03	> 10
COc1cc(C(=O)NC2CC3(CCN(CC4CCN(c5ccc(C6CCC(=O)NC6=O)cc5F)C(C)C4)CC3)C2)ccc1Nc1ncc2c(n1)N(C(C)C)CC(F)(F)C(=O)N2C (stereo not drawn) [Compound 32, 4-((7,7-difluoro-9-isopropyl-5-methyl-6-oxo-6,7,8,9-tetrahydro-5H-pyrimido[4,5-b][1,4]diazepin-2-yl)amino)-N-(7-((1-(4-(2,6-dioxopiperidin-3-yl)-2-fluorophenyl)-2-methylpiperidin-4-yl)methyl)-7-azaspiro[3.5]nonan-2-yl)-3-methoxybenzamide]		+++ (+++: <0.3)	< 0.03	> 10
COc1cc(C(=O)NC2CC3(CCN(CC4(O)CCN(c5ccc(C6CCC(=O)NC6=O)cc5F)CC4)CC3)C2)ccc1Nc1ncc2c(n1)N(C(C)C)CC(F)(F)C(=O)N2C (stereo not drawn) [Compound 33, 4-((7,7-difluoro-9-isopropyl-5-methyl-6-oxo-6,7,8,9-tetrahydro-5H-pyrimido[4,5-b][1,4]diazepin-2-yl)amino)-N-(7-((1-(4-(2,6-dioxopiperidin-3-yl)-2-fluorophenyl)-4-hydroxypiperidin-4-yl)methyl)-7-azaspiro[3.5]nonan-2-yl)-3-methoxybenzamide]		++ (++ <0.6)	< 0.03	> 10
COc1cc(C(=O)NC2CC3(CCN(CC4CCN(c5ccc(C6CCC(=O)NC6=O)cc5C)CC4)CC3)C2)ccc1Nc1ncc2c(n1)N(C(C)C)CC(F)(F)C(=O)N2C (stereo not drawn) [Compound 35, 4-((7,7-difluoro-9-isopropyl-5-methyl-6-oxo-6,7,8,9-tetrahydro-5H-pyrimido[4,5-b][1,4]diazepin-2-yl)amino)-N-(7-((1-(4-(2,6-dioxopiperidin-3-yl)-2-methylphenyl)piperidin-4-yl)methyl)-7-azaspiro[3.5]nonan-2-yl)-3-methoxybenzamide]		++ (++ <0.6)	< 0.03	> 10

Source: patent US11939334B2, “Substituted pyrimido[4,5-b][1,4]diazepines as PLK1 degradation inducers” (UPPTHERA, INC., priority 2021, dated 2024)
